What was measured:
[1] = system: CHO cells expressing FVIII; format: cell-based, Chinese hamster
Description: In order to determine the effect of DDAO levels in cell growth, experiments were undertaken using CHO cells expressing FVIII with varying levels of DDAO equivalent to the contaminating amount in certain lots of commercial soy hydrolysate.
Cells from a bioreactor containing CHO cells in BAV serum free media, DMEM/HAM's F12 medium (11.76 g) supplemented with soya-peptone (4 g), ethanolamine (1.53 mg), L-glutamine (0.6 g), NaHCO3 (2.0 g) and SYNPERONIC (PLURONIC®) F68 (0.25 g) (see International Patent Publ. WO/2006/045438) were cultured with 4 g/L soy peptone in 60 mL Roux flasks. Roux flasks provide a static, unmoving environment for the cells to grow.

CHO cells = assay: DDAO spiked into media at 0-50 ppm or equivalent ppb, in duplicate by serial dilution; cell growth and viability; format: cell-based, Chinese hamster
Excerpt: In separate experiments, DDAO was spiked into media at differing concentrations between 0-50 ppm or equivalent ppb in duplicate using serial dilution of high DDAO containing-media to reduce error (FIGS. 3 and 4).

Bacillus bacteria = Bacillus bacteria in culture; Brycki et al.; cited from earlier work

With `CCCCCCCCCCCC[N+](C)(C)[O-]` [DDAO, dodecyldimethylamine oxide] the “DDAO level above which toxicity is shown” value ([1]; Chinese hamster) was “above 21.5 ppm”, the “DDAO level up to which there is a positive effect on cell growth” value ([1]; ppm equivalent in the soy hydrolysate, Roux flasks) was “up to 20 ppm” and the “DDAO level up to which there is a beneficial effect on cell growth” value (CHO cells; FIG. 3) was 5-10 ppb. For the same compound, the “DDAO level up to which there is a beneficial effect on cell growth” value (CHO cells; FIG. 4, duplicate samples) was 6-10 ppm and the “DDAO level above which the process of denitrification is slowed” value (Bacillus bacteria) was “above 75 parts per million”.

— patent US9051544B2, “Method of enhancing cell growth using alkyl-amine-n-oxide (AANOx)” (BAXTER INTERNATIONAL INC., priority 2008, dated 2015)
